For the data set the following is noted: initial risperidone 15 mg/mL, control value = solubility of risperidone.

Where two headings read alike, the source gives them in different places.

Here are results for one compound from patent US20050036977A1, “Taste-masked resinate and preparation thereof” (priority 2003, published 2005).

Procedure: The resin and risperidone were added to either water, citrate-phosphate buffer at pH 5.93 or a 1.7% gelatin solution (Table 1a). The initial concentration of risperidone in the slurries was 15 mg/mL. The control consisted of risperidone in each of the three aqueous media.
Each slurry was placed into centrifuge tubes, capped and mixed with a Burrell Wrist action shaker model 75 for 24 hours. After 24 hours, the slurry was centrifuged at a relative centrifugal force of 38,724 g for 18 minutes. The supernatant was collected, filtered through a 0.45 μl nylon filter and assayed for risperidone by an isocratic HPLC method. The concentration of drug present in the supernatant represented the amount of unbound or “free” risperidone.

`Cc1nc2n(c(=O)c1CCN1CCC(c3noc4cc(F)ccc34)CC1)CCCC2` [Risperidone (Control), risperidone]: the “Concentration of Risperidone in Supernatant after 24 Hours Mixing” value runs as follows: (1.7% Gelatin) 1062.1 µg/mL; (Citrate-Phosphate Buffer (pH 5.93)) 4603.6 µg/mL; (Purified Water) 85.82 µg/mL.
